pIC50: −log10 of the molar value. In brackets after ≈: the same amount, converted by molar mass.
Assays:
Candida albicans MY 1055 = experiment: Antifungal Assay (minimum inhibitory concentration, Candida albicans MY 1055); type: cell-based; details: Yeast Nitrogen Base/0.5% glucose; inoculum 3-5×10^-4 CFU/ml; 37° C., 18 hours; lowest concentration that inhibits visible growth
Procedure: Antifungal activity was determined against Candida albicans MY 1055, a yeast strain maintained by Merck and Co., Rahway, New Jersey. Minimum inhibitory concentrations were determined using a starting inoculum of 3-5×10^-4 CFU/ml. The medium was Yeast Nitrogen Base/0.5% glucose. Test compounds were dissolved in a minimum amount of 50% aqueous ethanol and diluted to final concentrations with yeast medium. Samples were incubated at 37° C. for 18 hours. The minimum inhibitory concentration (MIC), reported in μg/ml, is the lowest concentration of test compound that inhibits visible growth.

[1] = biological target: T1, Acetoacetyl-coenzyme A thiolase (Rattus norvegicus, UniProt Q5XI22); experiment: Acetoacetyl-Coenzyme A Thiolase Inhibition; type: biochemical, Sprague Dawley rats; details: Table II; text: IC50, concentration that inhibits 50% of thiolase activity; enzyme from livers of lovastatin-treated rats; pH 7.5, room temperature, 340 nm NADH oxidation; read-out: MIC
T1 construct: prepared from the livers of Sprague Dawley rats treated in the diet for one week with 0.075% lovastatin to induce the enzyme; from tissue; host or cells: liver of lovastatin-fed Sprague Dawley rats
T1 sequence (Q5XI22 whole entry): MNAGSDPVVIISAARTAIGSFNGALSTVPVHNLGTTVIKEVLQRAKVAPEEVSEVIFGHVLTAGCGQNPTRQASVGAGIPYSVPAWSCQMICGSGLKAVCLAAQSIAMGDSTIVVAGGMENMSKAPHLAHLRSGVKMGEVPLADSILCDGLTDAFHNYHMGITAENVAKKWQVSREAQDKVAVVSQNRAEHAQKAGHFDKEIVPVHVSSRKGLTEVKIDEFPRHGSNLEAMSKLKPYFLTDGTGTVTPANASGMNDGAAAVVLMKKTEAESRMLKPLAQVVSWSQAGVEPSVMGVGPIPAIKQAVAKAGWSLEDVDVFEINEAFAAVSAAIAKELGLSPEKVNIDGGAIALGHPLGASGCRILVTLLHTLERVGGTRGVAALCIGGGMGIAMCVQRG
Procedure: Acetoacetyl-coenzyme A thiolase was prepared from the livers of Sprague Dawley rats treated in the diet for one week with 0.075% lovastatin to induce the enzyme. Acetoacetyl-coenzyme A thiolase was purified through the DEAE-cellulose step essentially as described by Mehrabian et al., J. Biol. Chem., 261, 16249-16255 (1986), but modified slightly by carrying out the 30-50% ammonium sulfate precipitation of the enzyme and a dialysis before the DEAE-cellulose step. The 0.06M eluate described by Mehrabian et al. contained the acetoacetyl-coenzyme A thiolase. The isolate was concentrated by ammonium sulfate precipitation, dissolved in the buffer used for elution, and stored at -70° C.
Inhibition of acetoacetyl-coenzyme A thiolase was measured by coupling the formation of acetoacetyl-coenzyme A to its subsequent reduction by β-hydroxybutyryl-coenzyme A dehydrogenase to β-hydroxybutyryl-coenzyme A and monitoring the resultant oxidation of NADH with a spectrophotometer set at 340 nm. […] Reaction was measured at room temperature for a time period necessary to produce a measurable reaction rate. […]

[2] = tested on: certain bacterial strains; details: background statement; cited from earlier work
cytosolic β-ketothiolase = details: background statement; cited from earlier work
certain fungal strains = details: background statement; cited from earlier work
[3] = background statement; cited from earlier work

SMILES | MIC (Candida albicans MY 1055) | pIC50 [1] | active against certain bacterial strains [2] | inhibitor of cytosolic β-ketothiolase (cytosolic β-ketothiolase) | active against certain fungal strains (certain fungal strains) | instability of the compound in vivo [3]
CC#CC#CC#C[C@@H](OC)[C@@H]1OC(=O)O[C@H]1CCCCCCC(=O)OC [Ex. 13, 5-(1(R)-Methoxy-2,4,6-octatriynyl)-2-oxo-4(S),5(S)-1,3-dioxolane-4-heptanoic acid, methyl ester] | 5 µg/mL (≈ 13.9 µM) | 6.25 | – | – | – | –
C#CC#CC#CC(O)C1OC(=O)OC1CCCCCCC(=O)O (stereo not shown) [triyne carbonate A, 5-(1-hydroxy-2,4,6-heptatriynyl)-2-oxo-1,3-dioxolane-4-heptanoic acid] | – | – | active | potent inhibitor | active | relative instability
COC(=O)CCCCCC[C@@H]1OC(=O)O[C@H]1C(O)C#CC#CC#C[Si](C)(C)C (single isomer, unassigned) [Ex. 6] | 0.6 µg/mL (≈ 1.48 µM) | – | – | – | – | –
